From ChEMBL document CHEMBL1135172, “High-throughput synthesis optimization of sulfonamide NPY Y5 antagonists” (Bioorg Med Chem Lett, 2002)

Biological target: T1, Neuropeptide Y receptor type 5 (Homo sapiens, UniProt Q15761)
T1 sequence (Q15761 whole entry): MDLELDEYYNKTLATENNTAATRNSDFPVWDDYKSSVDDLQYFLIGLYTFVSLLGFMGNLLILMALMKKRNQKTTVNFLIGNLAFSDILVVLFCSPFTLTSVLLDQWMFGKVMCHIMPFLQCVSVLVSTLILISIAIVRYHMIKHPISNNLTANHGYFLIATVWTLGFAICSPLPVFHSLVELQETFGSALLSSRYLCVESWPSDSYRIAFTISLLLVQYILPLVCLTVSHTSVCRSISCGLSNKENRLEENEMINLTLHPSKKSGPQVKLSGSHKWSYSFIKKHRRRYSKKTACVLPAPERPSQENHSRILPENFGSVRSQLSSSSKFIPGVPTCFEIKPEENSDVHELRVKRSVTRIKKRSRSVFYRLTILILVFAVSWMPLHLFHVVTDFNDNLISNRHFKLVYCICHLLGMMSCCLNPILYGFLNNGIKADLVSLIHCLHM
Experiment: Displacement of [125I]PYY from human Neuropeptide Y receptor type 5 in COS-7 cell membranes

SMILES	Ki [nM]
O=C(NCCCCCCNS(=O)(=O)c1ccccc1[N+](=O)[O-])C1CCc2ccccc2C1 (centres undefined)	46
O=C(NC[C@H]1CC[C@H](CNS(=O)(=O)c2ccc3ccccc3c2)CC1)C1CCc2ccccc2C1 (some centres undefined)	> 100000
O=C(NCCCCCCNS(=O)(=O)c1ccccc1[N+](=O)[O-])Nc1cccc2ccccc12	151
O=C(NCCCCCCNS(=O)(=O)c1ccccc1[N+](=O)[O-])c1ccc2ccccc2c1	412
O=C(NCCCCNS(=O)(=O)c1ccccc1[N+](=O)[O-])Nc1cccc2ccccc12	724
O=C(NC[C@H]1CC[C@H](CNS(=O)(=O)c2cccc3ccccc23)CC1)Nc1ccc(Cl)c(Cl)c1	95
O=S(=O)(NC[C@H]1CC[C@H](CNCc2ccc3c(c2)OCCO3)CC1)c1cccc2ccccc12	12
Cc1ccc(S(=O)(=O)NC(Cc2ccccc2)C(=O)NCCCCCCNS(=O)(=O)c2cccc3ccccc23)cc1 (centres undefined)	426
Cc1ccc(S(=O)(=O)NC(Cc2ccccc2)C(=O)NC[C@H]2CC[C@H](CNS(=O)(=O)c3ccc4ccccc4c3)CC2)cc1 (some centres undefined)	199
O=C(NC[C@H]1CC[C@H](CNS(=O)(=O)c2ccc3cccc([N+](=O)[O-])c3c2)CC1)C1CCc2ccccc2C1 (some centres undefined)	724
O=C(NC[C@H]1CC[C@H](CNS(=O)(=O)c2cccc3ccccc23)CC1)C1CCc2ccccc2C1 (some centres undefined)	4120
O=C(NCCCCCCNS(=O)(=O)c1cccc2ccccc12)C1CCc2ccccc2C1 (centres undefined)	724
O=C(NCCCCCCNS(=O)(=O)c1cccc2ccccc12)Nc1cccc2ccccc12	231
O=C(NC[C@H]1CC[C@H](CNS(=O)(=O)c2ccccc2[N+](=O)[O-])CC1)Nc1cccc2ccccc12	103
